This assay deals with T1, human GPR120 (Homo sapiens, UniProt Q5NUL3).
T1 construct: host or cells: HEK293 cells co-expressing Gqi5
T1 sequence (Q5NUL3 1-361): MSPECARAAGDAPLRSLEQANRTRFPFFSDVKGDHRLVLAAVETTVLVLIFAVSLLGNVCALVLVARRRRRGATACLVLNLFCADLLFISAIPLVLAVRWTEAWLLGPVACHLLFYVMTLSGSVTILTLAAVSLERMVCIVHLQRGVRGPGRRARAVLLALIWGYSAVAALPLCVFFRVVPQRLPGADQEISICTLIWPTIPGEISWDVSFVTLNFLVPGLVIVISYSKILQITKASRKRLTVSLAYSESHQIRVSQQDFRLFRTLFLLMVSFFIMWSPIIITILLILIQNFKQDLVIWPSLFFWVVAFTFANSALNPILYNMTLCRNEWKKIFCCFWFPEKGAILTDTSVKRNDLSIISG
The assay can be described thus: Intracellular Ca2+ assay in human GPR120 stable cell line (HEK293 co-expressing Gqi5), Flexstation. Type of assay: cell-based. The following applies: human GPR120 cells, Ca2+ fluorescence; for % Activity (GW9508 Reference Compound): % activity at 5 μM compared to the maximal activity of GW9508 at 6.7 μM (=100%). As to the method:
Human GPR120 stable cell line was purchased from Multispan Inc (26219 Eden Landing Road, Hayward, Calif. 94545). This GPR120 cell line was generated in HEK293 cells co-expressing Gqi5. In this cell line, the Flag epitope tag (DYKDDDDK) was fused to the amino terminus of human GPR120 protein.
The concentration of intracellular Ca^2+ was measured as described below. Human GPR120 cells were plated in 96 well plates (Poly-D-Lysine coated black/clear Plate, Greiner Bio-One) at 70,000 cells per well and cultured overnight in conditions of 37° C. and 5% CO2. A Ca^2+assay dye stock solution was prepared by adding 10 mL of assay buffer (HBSS/20 mM HEPES, pH 7.4) to FLIPR Calcium 4 Assay Bulk Kit (Molecular Devices). The 10 mL of Ca^2+ assay dye solution was prepared by further diluting 0.5 mL of Ca^2+ assay dye stock solution with 10 mL of assay buffer. The medium of the cells was removed and immediately 100 μL of the Ca^2+ assay dye solution was dispensed into each well followed by incubation at 37° C. and 5% CO2 for 50 minutes to incorporate the Ca^2+ dye into the cells. The cell plate was then placed in the Flexstation (Molecular Devices) for 20 minutes at 37° C. Compounds were dissolved in 100% DMSO and diluted to desired concentrations with assay buffer and placed in the Flexstation simultaneously with the cell plate for 20 minute incubation at 37° C. prior to reading. Fluorescence intensity was measured immediately following compound addition (25 μL/well) on the Flexstation at an excitation wavelength of 485 nm and an emission wavelength of 525 with 515 nm auto cutoff. The resulting increase in fluorescence intensities corresponds to increases in intracellular Ca^2+ levels.
Compounds were dissolved in 100% DMSO to a concentration of 20 mM to provide stock solutions. To determine activity against human GPR120, compounds were added with human GPR120 stably expressing cells (described above), at eight desired concentrations ranging from 0.00001 to 20 μM, in 96 well plates and fluorescence intensities were measured for 90 seconds with 2-second intervals. An EC50 value (concentration of the GPR120 agonist where 50% of the agonist's maximal activity is observed) was calculated using the changes (Max−Min) of fluorescence intensity.
To determine percent activity for a tested compound, the fluorescence intensity value obtained at a particular concentration were compared to the maximal fluorescence intensity value obtained for reference compound GW9508 (4-[[(3-phenoxyphenyl)methyl]amino]benzene propanoic acid; British Journal of Pharmacology 2006 148, 619-628) or the compound of Example 25. When GW9508 was used as the reference compound, the maximal activity of GW9508 at 6.7 μM was designated as 100% activity. When the compound of Example 25 was used as the reference compound, the maximal activity of the compound of Example 25 at 2.5 μM was designated as 100% activity. Typically, the GW9508 activity reached a maximum at a concentration of approximately 6.7 μM and typically the compound of Example 25 reached a maximum activity at approximately 2.5 μM.

“4-[[(3-phenoxyphenyl)methyl]amino]benzene propanoic acid [GW9508, reference compound]”: for the setting “reference compounds, typical value”, the “concentration at which activity reached a maximum” value is on record as “approximately 6.7 μM”. For `CC1(C)Cc2cc(Cl)cc(COc3c(F)cc(C4CC4C(=O)O)cc3F)c2O1` (racemic) [Example 35, 2-(4-((5-chloro-2,2-dimethyl-2,3-dihydrobenzofuran-7-yl)methoxy)-3,5-difluorophenyl)cyclopropanecarboxylic acid], the “% Activity (GW9508 Reference Compound)” value turned out to be 60.11%. On the same count and under the same terms, for `CC1(C)Cc2cc(F)cc(COc3c(F)cc(CC4CC4C(=O)O)cc3F)c2O1` (racemic) [Example 184, 2-(3,5-difluoro-4-((5-fluoro-2,2-dimethyl-2,3-dihydrobenzofuran-7-yl)methoxy)benzyl)cyclopropanecarboxylic acid] the value was 97.04%; for `CC1(C)Cc2cc(F)cc(COc3ccc(C4CC4C(=O)O)cc3)c2O1` (single isomer, unassigned) [Example 131A, 2-(4-((5-fluoro-2,2-dimethyl-2,3-dihydrobenzofuran-7-yl)methoxy)phenyl)cyclopropanecarboxylic acid], 103.75%.

For the molecule `CC1(C)Cc2cc(F)cc(COc3ccc(C4CC4C(=O)O)cc3)c2O1` (single isomer, unassigned) [Example 131B, 2-(4-((5-fluoro-2,2-dimethyl-2,3-dihydrobenzofuran-7-yl)methoxy)phenyl)cyclopropanecarboxylic acid], the “% Activity (GW9508 Reference Compound)” value came to 105.8%. The same measure, in the same setting: for `CC1(C)Cc2cc(F)cc(COc3c(F)cc(CC4CC4C(=O)O)cc3F)c2O1` (single isomer, unassigned) [Example 184A, 2-(3,5-difluoro-4-((5-fluoro-2,2-dimethyl-2,3-dihydrobenzofuran-7-yl)methoxy)benzyl)cyclopropanecarboxylic acid] the value was 95.58%.

Turning to `CC1(C)Cc2cc(F)cc(COc3c(F)cc(CC4CC4C(=O)O)cc3F)c2O1` (single isomer, unassigned) [Example 184B, 2-(3,5-difluoro-4-((5-fluoro-2,2-dimethyl-2,3-dihydrobenzofuran-7-yl)methoxy)benzyl)cyclopropanecarboxylic acid], the “% Activity (GW9508 Reference Compound)” value stood at 130.66%. For `CC(Cc1cc(F)c(OCc2cccc3c2OC(C)(C)CC3)c(F)c1)C(=O)O` (stereo not drawn) [Example 2, 3-(4-((2,2-dimethylchroman-8-yl)methoxy)-3,5-difluorophenyl)-2-methylpropanoic acid], the “% Activity (GW9508 Reference Compound)” value was 134.6745%. The same measure, in the same setting: to `CC(Cc1cc(F)c(OCc2cccc3c2OCC3)c(F)c1)C(=O)O` (stereo not drawn) [Example 3, 3-(4-((2,3-dihydrobenzofuran-7-yl)methoxy)-3,5-difluorophenyl)-2-methylpropanoic acid] belongs 123.7995%; to `Cc1cc(COc2ccc(CC(C)C(=O)O)cc2)c2c(c1)CC(C)(C)O2` (stereo not drawn) [Example 4, 2-methyl-3-(4-((2,2,5-trimethyl-2,3-dihydrobenzofuran-7-yl)methoxy)phenyl)propanoic acid], 110.8%. Same read-out and setting: for `Cc1cc(COc2c(F)cc(CC(C)C(=O)O)cc2F)c2c(c1)CC(C)(C)O2` (stereo not drawn) [Example 5, 3-(3,5-difluoro-4-((2,2,5-trimethyl-2,3-dihydrobenzofuran-7-yl)methoxy)phenyl)-2-methylpropanoic acid] the value was 149.2%; for `Cc1cc(CC(C)C(=O)O)ccc1OCc1cc(F)cc2c1OC(C)(C)C2` (stereo not drawn) [Example 6, 3-(4-((5-fluoro-2,2-dimethyl-2,3-dihydrobenzofuran-7-yl)methoxy)-3-methylphenyl)-2-methylpropanoic acid], 147.3%. The same measure, in the same setting: to `COc1cc(CC(C)C(=O)O)ccc1OCc1cc(F)cc2c1OC(C)(C)C2` (stereo not drawn) [Example 7, 3-(4-((5-fluoro-2,2-dimethyl-2,3-dihydrobenzofuran-7-yl)methoxy)-3-methoxyphenyl)-2-methylpropanoic acid] belongs 168.2%.

Consider `CC(Cc1ccc(OCc2cc(F)cc3c2OC(C)(C)C3)c(F)c1)C(=O)O` (stereo not drawn) [Example 8, 3-(3-fluoro-4-((5-fluoro-2,2-dimethyl-2,3-dihydrobenzofuran-7-yl)methoxy)phenyl)-2-methylpropanoic acid], for which the “% Activity (GW9508 Reference Compound)” value is given as 135.3906%. On the same count and under the same terms, for `CC(Cc1ccc(OCc2cc(Cl)cc3c2OC(C)(C)C3)c(C(F)(F)F)c1)C(=O)O` (stereo not drawn) [Example 9, 3-(4-((5-chloro-2,2-dimethyl-2,3-dihydrobenzofuran-7-yl)methoxy)-3-(trifluoromethyl)phenyl)-2-methylpropanoic acid] the value was 112.8%. For `Cc1cc(CC(C)C(=O)O)ccc1OCc1cc(Cl)cc2c1OC(C)(C)C2` (stereo not drawn) [Example 11, 3-(4-((5-chloro-2,2-dimethyl-2,3-dihydrobenzofuran-7-yl)methoxy)-3-methylphenyl)-2-methylpropanoic acid], the “% Activity (GW9508 Reference Compound)” value was 124.2119%. Still for that read-out and setting: for `CC(Cc1ccc(OCc2cc(Cl)cc3c2OC(C)(C)C3)c(Cl)c1)C(=O)O` (stereo not drawn) [Example 12, 3-(3-chloro-4-((5-chloro-2,2-dimethyl-2,3-dihydrobenzofuran-7-yl)methoxy)phenyl)-2-methylpropanoic acid] the value was 116.1354%; for `CC(Cc1cc(Cl)c(OCc2cc(Cl)cc3c2OC(C)(C)C3)c(Cl)c1)C(=O)O` (stereo not drawn) [Example 14, 3-(3,5-dichloro-4-((5-chloro-2,2-dimethyl-2,3-dihydrobenzofuran-7-yl)methoxy)phenyl)-2-methylpropanoic acid], 84.49%; for `COc1cc(CC(C)C(=O)O)ccc1OCc1cc(Cl)cc2c1OC(C)(C)C2` (stereo not drawn) [Example 15, 3-(4-((5-chloro-2,2-dimethyl-2,3-dihydrobenzofuran-7-yl)methoxy)-3-methoxyphenyl)-2-methylpropanoic acid], 109.2%. The same measure, in the same setting: to `CC(Cc1ccc(OCc2cc(F)cc3c2OC(C)(C)C3)cc1)C(=O)O` (stereo not drawn) [Example 16, 3-(4-((5-fluoro-2,2-dimethyl-2,3-dihydrobenzofuran-7-yl)methoxy)phenyl)-2-methylpropanoic acid] belongs 110.8294%; to `CC(Cc1cc(F)c(OCc2cc(F)cc3c2OC(C)(C)C3)c(F)c1)C(=O)O` (stereo not drawn) [Example 18, 3-(3,5-difluoro-4-((5-fluoro-2,2-dimethyl-2,3-dihydrobenzofuran-7-yl)methoxy)phenyl)-2-methylpropanoic acid], 130.0714%; to `CC1(C)Cc2cc(F)cc(COc3c(F)cc(C4CC4C(=O)O)cc3F)c2O1` (stereo not drawn) [Example 19, 2-(3,5-difluoro-4-((5-fluoro-2,2-dimethyl-2,3-dihydrobenzofuran-7-yl)methoxy)phenyl)cyclopropanecarboxylic acid], 125.5%. Consider `CC(Cc1cc(F)c(OCc2cccc3c2CC(C)(C)O3)c(F)c1)C(=O)O` (stereo not drawn) [Example 21, 3-(4-((2,2-dimethyl-2,3-dihydrobenzofuran-4-yl)methoxy)-3,5-difluorophenyl)-2-methylpropanoic acid], for which the “% Activity (GW9508 Reference Compound)” value is on record as 112.6%.

`CC1(C)Cc2c(COc3c(F)cc(C4CC4C(=O)O)cc3F)cccc2O1` (stereo not drawn) [Example 22, 2-(4-((2,2-dimethyl-2,3-dihydrobenzofuran-4-yl)methoxy)-3,5-difluorophenyl)cyclopropanecarboxylic acid]: the “% Activity (GW9508 Reference Compound)” value was determined as 126%.

For the origin of these results see US20130109734A1 (Metabolex, Inc., priority 2010, published 2013).
